# Measured values from patent publication US5532229A, “Topical administration of vitamin D to mammals” (priority 1994, dated 1996).
# Legend:
# [1] = Experiment 2: serum 25(OH)D3 after 3 wk vitamin D3 supplement; format: in vivo, Male Wistar rats; settings: 8 μg/day, relative to marginal-diet group
# Procedure: After 30 days, the rats were divided into three groups of 6: one group continued with no supplement, one group was given daily vitamin D3 supplement, 8 μg/day either by gastric tube, the third received the supplement by application to the skin in 50 μL ethanol. Vitamin D3 was given for 3 wk. The day before the rats were killed, the vitamin D3 dose was supplemented with [^14 C]-labelled vitamin D3, 915,000 cpm per rat. Blood was obtained from the tail of each rat at 3 h, 9 h, and by heart puncture when the rats were anesthetized for killing, 24 h after giving the tracer. The blood was extracted and chromatographed to distinguish [^14 C]-vitamin D3 from the [^14 C]-25(OH)D3generated from it. Radioactivity was also measured in the liver, kidney, and adipose tissue. Serum nonradioactive 25(OH)D3 was also measured.
# Biochemical measurements. 1,25(OH)2 D3 in serum was measured by calf-thymus receptor-binding assay after initial purification of 1,25(OH)2 D3 with C18-OH cartridges (5). For the serum volumes that were minimal, serum was measured out in 50 μL increments, and the final result was adjusted for the volume of sample analyzed. […] The material eluting as 1,25(OH)2 D3 was evaporated and redissolved in acetonitrile: water for further purification with C18-OH cartridges and quantitation by thymus receptor assay, as described for serum. […]
# [2] = Experiment 5: toxic effects after 2 weeks of high doses of dermal or oral vitamin D3; format: in vivo, Male Wistar rats
# Procedure: Toxicity: Long-term effects of increasing doses of vitamin D3 given dermally or by gastric tube.
# This experiment was to compare potential toxic effects of vitamin D3 given for a 2 wk period, at the near-fatal dose of 800 μg per day by gastric tube, or by dermal administration at 800 μg/day or 2600 μg/day. Another goal was find evidence of saturable dermal uptake by including [^14 C]-vitamin D3 to monitor its removal from the skin at the high doses of vitamin D3.
# Male Wistar rats, 190±10 g were obtained and divided into three groups of 7. They were treated for 2 weeks with one the following: 2000 nmol/day of vitamin D3 by gastric tube; 800 μg/day applied to a 2×2 cm patch of skin on the back; 2600 μg/day skin. The day before killing, 66,000 counts per minute of [^14 C]-vitamin D3 was applied along with the dermal dose to permit a determination of uptake from the skin. The rats were killed after two weeks for analysis of serum, urine, kidney, and aorta. The calcium in urine and acid-treated homogenate of kidney was measured by chemical colorimetry; aorta calcium was measured by treating with nitric acid measuring calcium by atomic absorption.
smiles,measurement,setting,value
C=C1CC[C@H](O)C/C1=C/C=C1\CCC[C@]2(C)[C@@H]([C@H](C)CCCC(C)C)CC[C@@H]12 [vitamin D3],increase in 25(OH)D3 with dermal relative to gastric supplementation,[1],59%
same,urinary calcium (above the usual rat normal),[2]; all treatments,> 1 μmol/mmol creatinine
same,serum calcium (above the normal rat value),"[2]; all treatments, 2 weeks",> 2.4 mmol/L
same,calcium accumulation in kidney and aorta,"[2]; by gastric tube, 2 weeks",substantial in both the kidney and the aorta
same,Urine Ca/create Day 4,[2]; dermal 800 μg/day,7.9
same,Urine Ca/create Day 13,[2]; dermal 800 μg/day,10.0
same,Weight gain,[2]; dermal 800 μg/day,91 g/2 wk
same,Total Aorta Calcium,"[2]; dermal 800 μg/day, 2 weeks",< 10 nmol
same,Total Renal Calcium,"[2]; dermal 800 μg/day, 2 weeks",13.3 µmol/L
same,Urine Ca/create Day 4,[2]; dermal 2600 μg/day,10.3
same,Urine Ca/create Day 13,[2]; dermal 2600 μg/day,10.8
same,Weight gain,[2]; dermal 2600 μg/day,76 g/2 wk
same,Total Aorta Calcium,"[2]; dermal 2600 μg/day, 2 weeks",< 10 nmol
same,Total Renal Calcium,"[2]; dermal 2600 μg/day, 2 weeks",13.3 µmol/L
same,difference in serum 25(OH)D3 between the two dermal groups,[2]; dermal 800 vs 2600 μg/day,no statistical difference
same,Weight gain,"[2]; dermal, same or higher doses, 2 wk",normal weight gain
same,calcium accumulation in kidney and aorta,"[2]; dermally treated, 2 weeks",no evidence of either effect
same,Urine Ca/create Day 4,[2]; gastric 800 μg/day,12.0
same,Urine Ca/create Day 13,[2]; gastric 800 μg/day,9.9
same,Weight gain,[2]; gastric 800 μg/day,7 g/2 wk
same,Total Aorta Calcium,"[2]; gastric 800 μg/day, 2 weeks",361 nmol
same,Total Renal Calcium,"[2]; gastric 800 μg/day, 2 weeks",77 µmol/L
same,"serum 1,25(OH)2 D3, gastric vs skin groups","[2]; gastric, 2 weeks","lower serum 1,25(OH)2 D3 concentrations than with either skin group"
same,Weight gain,"[2]; near-toxic gastric dose, 2 wk",prevented the rats from gaining weight
